Results published in patent publication US20250082633A1, “COMPOUNDS AND METHODS FOR MODULATING SPLICING” (REMIX THERAPEUTICS INC., priority 2021, published 2025).
Read-outs that look alike come from different tables or passages of the source.

Tests used:
Assay type in all cases: cell-based
[1] = test system: K562 cells; experiment: Cell Titer Glo 2.0 cell viability assay; conditions: Homo sapiens, 500 cells/well, 72 hours
Method: Compounds described herein were screened for toxicity in K562 (human chronic myelogenous leukemia) and SH-SY5Y (human neuroblastoma) cells using a Cell Titer Glo 2.0 assay. • Promega CellTiter-Glo® 2.0 Cell Viability Assay (cat #G9241) • Corning 384-well TC-treated microplates (cat #3570) Cells were plated at 500 cells/well (K562 cells) in 45 μL of IMDM supplemented with 10% FBS in a 384-well opaque plate. Wells containing only medium were used as a blank control. Test compounds (e.g., compounds of Formula (I), (II), or (III)) were first serially diluted in DMSO then diluted 1:100 with IMDM+10% FBS. The final concentration of DMSO was 0.1% in each well. The cells were incubated for 72 hours at 37° C. and 5% CO2 before assaying with Cell Titer Glo 2.0 reagent.

[2] = test system: SMN2 mRNA; experiment: RT-qPCR splicing assay, gene panel, SMN2 canonical junction (CJ) mRNA; conditions: Homo sapiens; decrease in CJ mRNA levels; larger panel of genes; Table 3; read-out: SMN2 CJ IC50
Method: (§1) Compounds described herein were used to modulate RNA transcript abundance in cells. The expression of a target mRNA was measured by detecting the formation of an exon-exon junction in the canonical transcript (CJ). A compound mediated exon-inclusion event was detected by observing an increase in formation of a new junction with an alternative exon (AJ). Real-time qPCR assays were used to detect these splicing switches and interrogate the potency of various compounds towards different target genes. A high-throughput real time quantitative PCR (RT-qPCR) assay was developed to measure these two isoforms of the mRNA (CJ and AJ) for exemplary genes, such as HTT, SMN2, and MYB, together with a control housekeeping gene, GAPDH or GUSB or PPIA, used for normalization. Briefly, the A673 or K562 cell line was treated with various compounds described herein (e.g., compounds of Formula (I)). After treatment, the levels of the HTT, MYB, or SMN2 mRNA targets were determined from each sample of cell lysate by cDNA synthesis followed by qPCR.
(§2) The A673 cell line was cultured in DMEM with 10% FBS. Cells were diluted with full growth media and plated in a 96-well plate (15,000 cells in 100 ul media per well). The plate was incubated at 37° C. with 5% CO2 for 24 hours to allow cells to adhere. An 11-point 3-fold serial dilution of the compounds was made in DMSO then diluted in media in an intermediate plate. Compounds were transferred from the intermediate plate to the cell plate with the top dose at a final concentration of 10 uM in the well. Final DMSO concentration was kept at or below 0.25%. The cell plate was returned to the incubator at 37° C. with 5% CO2 for an additional 24 hours.
(§3) The K562 cell line was cultured in IMDM with 10% FBS. For K562, cells were diluted with full growth media and plated in either a 96-well plate (50,000 cells in 50 uL media per well) or a 384-well plate (8,000-40,000 cells in 45 uL media per well). An 11-point 3-fold serial dilution of the compounds were made in DMSO then diluted in media in an intermediate plate. Compound was transferred from the intermediate plate to the cell plate with the top dose at a final concentration of 10 uM in the well. Final DMSO concentration was kept at or below 0.25%. Final volume was 100 uL for 96-well plate and 50 uL for 384-well plate. The cell plate was then placed in an incubator at 37° C. with 5% CO2 for 24 hours.
(§4) The cells were then gently washed with 50 uL-100 uL cold PBS before proceeding to addition of lysis buffer. 30 uL-50 μL of room temperature lysis buffer with DNAse I (and optionally RNAsin) was added to each well. Cells were shaken/mixed thoroughly at room temperature for 5-10 minutes for lysis to take place and then 3 uL-5 μL of room temperature stop solution was added and wells were shaken/mixed again. After 2-5 minutes, the cell lysate plate was transferred to ice for RT-qPCR reaction setup. The lysates could also be frozen at −80° C. for later use.
(§5) In some cases, a direct lysis buffer was used. An appropriate volume of 3× lysis buffer (10 mM Tris, 150 mM NaCl, 1.5%-2.5% Igepal and 0.1-1 U/uL RNAsin, pH 7.4) was directly added to either K562 or A673 cells in media and mixed by pipetting 3 times. The plates were then incubated at room temperature with shaking/rocking for 20-50 minutes to allow for lysis to take place. After this time, the cell lysate plate was transferred to ice to set up for the RT-qPCR reactions. The lysates could also be frozen at −80° C. for later use.
(§6) To set up 10 uL RT-qPCR reactions, cell lysates were transferred to 384-well qPCR plates containing the master mix according to the table below. The plates were sealed, gently vortexed, and spun down before the run. The volumes were adjusted accordingly in some instances where the reaction was carried in 20 μL. The table below summarizes the components of the RT-qPCR reactions:
(§7) The RT-qPCR reaction was performed using a QuantStudio (ThermoFisher) under the following fast cycling conditions. […]

[3] = test system: HTT mRNA; experiment: RT-qPCR splicing assay, HTT canonical (CJ) and alternative (AJ) junction mRNA; conditions: Homo sapiens; for IC50: read-out: HTT CJ IC50
Method: as §1
(§8) • Cells-to-CT 1-step kit: ThermoFisher A25602, Cells-to-CT lysis reagent: ThermoFisher 4391851C, TaqMan™ Fast Virus 1-Step Master Mix: ThermoFisher 4444436 • GAPDH: VIC-PL, ThermoFisher 4326317E (Assay: Hs99999905_m1)—used for K562/suspension cell lines • GUSB: VIC-PL, ThermoFisher 4326320E (Assay: Hs99999908_m1)—used for K562/suspension cell lines • PPIA: VIC-PL, ThermoFisher 4326316E (Assay: Hs99999904_m1)—used for A673/adherent cell lines
as §2, §3, §4
as §5, with “use. […]” for “use.”

[4] = test system: MYB mRNA; experiment: RT-qPCR splicing assay, MYB canonical (CJ) and alternative (AJ) junction mRNA; conditions: Homo sapiens; for IC50: read-out: MYB CJ IC50
Method: as §1, §8, §2, §3, §4
as §5, with “use. […]” for “use.”

[5] = test system: Target C; experiment: RT-qPCR splicing assay, gene panel, Target C canonical junction (CJ) mRNA; conditions: Homo sapiens; decrease in CJ mRNA levels; larger panel of genes; Table 3; read-out: Target C CJ IC50
Method: as §1, §2, §3, §4, §5, §6, §7

[6] = decrease in CJ mRNA levels, larger panel of genes, Table 3
[7] = decrease in canonical junction mRNA, A673 or K562 cells, 24 hours treatment, Table 2

- GI50 [1]: 1000 to 10000 nM
- IC50 [2]: 100 to 1000 nM
- IC50 [3, 6]: 100 to 1000 nM
- IC50 [3, 7]: 100 to 1000 nM
- IC50 [4, 6]: 1000 to 10000 nM
- IC50 [4, 7]: 1000 to 10000 nM
- IC50 [5]: 100 to 1000 nM
SMILES: Cc1cn2nc(-c3cc(F)c4nn(C5CCNC6(CC6)C5)cc4c3)cc2c(C)n1 (stereo not drawn) [Compound 204, 2-[2-(4-azaspiro[2.5]octan-7-yl)-7-fluoro-indazol-5-yl]-4,6-dimethyl-pyrazolo[1,5-a]pyrazine]
- AC50 ([3]; increase in alternative junction mRNA, A673 or K562 cells, 24 hours treatment, Table 2, read-out: HTT AJ AC50): 100 to 1000 nM
- AC50 ([4]; increase in alternative junction mRNA, A673 or K562 cells, 24 hours treatment, Table 2, read-out: MYB AJ AC50): 1000 to 10000 nM
